Experiments:
[1] = system: PGE2 production in ionomycin-stimulated STTG cells; experiment: Prostaglandin E2 assay (PGE2 EIA) in ionomycin-stimulated STTG cells; assay type: cell-based, human; conditions: for decrease in PGE2 release / effect on total PGE2 release: FIG. 2
Description: FIG. 1. Percent inhibition of prostaglandin E2 (PGE2) production in ionomycin-stimulated STTG cells. PGE2 production was assayed in ionomycin-stimulated STTG cells treated with N-acetyl-L-aspartate (NAA), aspirin (Asp) or dexamethasone (Dex) using a PGE2 enzyme immunoassay described in Example 1. Cells were pre-incubated for 1 hour with NAA, Asp or Dex and then stimulated with 1 μM ionomycin at 37° C., 10% CO2 for 24 hours. Percent inhibition of PGE2 production was measured compared to ionomycin-stimulated STTG cells in the absence of NAA, Asp or Dex. Data represent mean ±SD of three separate experiments. Asterisks indicate a significant difference between untreated, ionomycin-stimulated STTG cells and treated, ionomycin-stimulated STTG cells: *p<0.01. Iono=ionomycin.
FIG. 2. Effect of glutamate receptor antagonists and NAA on PGE2 release in STTG cells stimulated with ionomycin. PGE2 production was assayed in ionomycin-stimulated STTG cells treated with NAA or potential glutamate receptor antagonists (AP-4 and GDE) using a PGE2 enzyme immunoassay described in Example 1. Cells were pre-incubated for 1 hour with NAA or the potential glutamate receptor antagonists and then cells were stimulated with 1 μM ionomycin at 37° C., 10% CO2 for 24 hours. Percent inhibition of PGE2 production was measured compared to ionomycin-stimulated STTG cells in the absence of NAA or potential glutamate receptor antagonists. Data represent mean ±SD of three separate experiments. Asterisks indicate a significant difference between untreated, ionomycin-stimulated STTG cells and treated, ionomycin-stimulated STTG cells: *p<0.01. AP-4=L-2-amino-4-phosphonobutyric acid, and GDE=L-glutamic acid diethyl ester.
Prostaglandin E2 Assay. Human STTG astroglial cells (CRL-1718, American […], Rockville, Mass.) were grown in 75 cm^2 flasks (10% CO2, 37° C.) containing AGM medium (BioWhittaker, Walkersville, Md.) to near confluency (>90%) prior to subculturing with trypsin/EDTA. Cells were plated on a 24-well plate at 50,000 cells/well and incubated for two days to near confluency prior to dosing with inhibitors. N-Acetyl aspartate (NAA, Sigma-Aldrich, St. Louis, Mo.) was dissolved in AGM medium and brought back to a pH of 7.4. Stock solutions of aspirin were dissolved in DMSO and then diluted in culture medium. DMSO concentrations were never >0.5% in the medium bathing the cells. Cells were then dosed with potential prostaglandin E2 (PGE2) inhibitors (NAA, L-2-Amino-4-phosphonobutyric acid [L-AP-4, Sigma-Aldrich, St. Louis, Mo.], L-glutamic acid diethyl ester [GDE, generous gift from Nagaraja K. R. Rao, DMI Synthesis UK Ltd.], aspirin, or dexamethasone). After a 1-hour incubation, the cells were then stimulated with 1 μM ionomycin (Sigma-Aldrich, St. Louis, Mo.) for 24 hours at 37° C. Total volume per well was 1 mL. Then, 0.5 mL of culture medium was removed from each well and immediately assayed for PGE2 using the Prostaglandin E2 enzyme immunoassay (EIA) system (Amersham, Piscataway, N.J.). The remaining medium containing the cells was assayed for cell viability using cell titer reagent (G358A, Promega, Madison, Wis.).

[2] = molecular target: T1, COX-2 (Homo sapiens, UniProt P35354); experiment: COX-2 activity assay (PGE2 EIA system); assay type: biochemical; conditions: concentrations up to 20 mM; 0.05 units COX-2, 1 μM arachidonic acid; data not shown
T1 construct: purchased Oxford Biomedical, Oxford, Mich
T1 sequence (P35354 18-604): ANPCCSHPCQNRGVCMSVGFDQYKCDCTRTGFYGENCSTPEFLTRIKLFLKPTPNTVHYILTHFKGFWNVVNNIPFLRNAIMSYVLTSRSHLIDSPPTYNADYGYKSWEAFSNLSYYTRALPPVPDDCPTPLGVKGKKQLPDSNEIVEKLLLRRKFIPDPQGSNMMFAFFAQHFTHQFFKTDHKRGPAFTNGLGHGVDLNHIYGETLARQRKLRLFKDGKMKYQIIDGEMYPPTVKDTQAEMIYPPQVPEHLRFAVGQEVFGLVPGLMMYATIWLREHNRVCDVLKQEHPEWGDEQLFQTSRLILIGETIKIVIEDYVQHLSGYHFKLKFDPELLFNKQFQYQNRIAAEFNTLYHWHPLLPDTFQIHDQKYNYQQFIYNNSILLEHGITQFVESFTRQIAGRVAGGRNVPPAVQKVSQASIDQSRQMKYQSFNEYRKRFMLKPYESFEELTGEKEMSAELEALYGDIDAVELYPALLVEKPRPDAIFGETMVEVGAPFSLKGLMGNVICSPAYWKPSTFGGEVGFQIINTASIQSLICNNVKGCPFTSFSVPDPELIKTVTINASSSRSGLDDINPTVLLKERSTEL
Description: COX-2 Activity Assay. Modifying the method of Ouellet and co-workers (Proc. Natl. Acad. Sci. USA, 98:14583-14588 (2001)), COX-2 activity was determined using the PGE2 EIA system. Briefly, COX-2 (Oxford Biomedical, Oxford, Mich.) was incubated at 37° C. for 5 minutes with arachidonic acid (AA), 500 μM phenol, and 1 μM hematin in a 100 mM phosphate buffer (pH 6.5). The reaction was stopped with a solution containing dH2O/MeOH/1 M citric acid (30:4:1). After optimization of COX-2 and AA, 0.05 units of COX-2 per incubation and 1 μM of AA were determined to be optimal. Varying concentrations of NAA and aspirin (pH 6.5) were pre-incubated with COX-2, hematin, and phenol for 15 minutes at 37° C. prior to AA addition. The reaction was stopped after 5-minute incubation with AA. PGE2 levels were determined using PGE2 EIA system as described.
Effect of NAA on COX-2 activity and mRNA. To determine if NAA was inhibiting the cyclooxygenase enzyme directly, a COX-2 activity assay was developed using the PGE2 EIA system. After optimizing for COX-2 and arachidonic acid (AA), a concentration of 0.05 units/incubation of COX-2 and 1 μM of AA was determined to be optimal.

[3] = system: COX-2 mRNA in STTG astroglial cells; experiment: RT-PCR of COX-2 in STTG cells; assay type: cell-based, human; conditions: 5 and 10 mM, data not shown
Description: RT-PCR of COX-2. STTG cells were grown to near confluency on 25 cm^2 cell culture flasks. Cells were dosed with 5 or 10 mM NAA and incubated for 4 or 24 hours at 37° C., 10% CO2. RNA was isolated using Rneasy Mini Kit (Qiagen, Valencia, Calif.) and quantitated using A260/A280 assay. Then, 2 μg of RNA was converted to cDNA using the Omniscript Reverse Transcriptase Kit (Qiagen, Valencia, Calif.). PCR was next performed using HotStarTaq Master Mix (Qiagen, Valencia, Calif.). COX-2 forward ([…] [SEQ ID NO:1]) and reverse primers ([…] [SEQ ID NO:2]) were obtained from Qiagen (Valencia, Calif.) and used at a concentration of 0.5 μM. The PCR thermal cycler program consisted of: 1) 1 denaturation cycle of 15 minutes at 95° C.; 2) 30 cycles of 94° C. (30 sec denaturation), 55° C. (30 sec annealing), and 72° C. (30 sec elongation); and 3) 1 elongation cycle of 10 minutes at 72° C. PCR product was then loaded on a 2% (w/v) agarose gel and stained with ethidium bromide.

[4] = system: COX-2 protein in STTG cells; experiment: Western blot of total COX-2 protein in STTG cells; assay type: cell-based, human; conditions: 24 h, 200 μM aspirin, 10 mM NAA (FIG. 3); for effect on total amount of COX-2 protein: STTG cells stimulated with 1 or 2 ng/ml IL-1β; for effect on resting COX-2 protein: unstimulated STTG cells
Description: FIG. 3. Representative Western blot for total COX-2 protein in IL-1β-stimulated STTG cells treated with NAA and aspirin. Cells were incubated for 24 hours at 37° C., 10% CO2. Cells were dosed as follows: untreated (lane 1), 200 μM aspirin (lane 2), 10 mM NAA (lane 3), 1 ng/ml IL-1β (lane 4), 2 ng/ml IL-1β (lane 5), 1 ng/ml IL-1β+200 μM aspirin (lane 6), 2 ng/ml IL-1β+200 μM aspirin (lane 7), 1 ng/ml IL-1β+10 mM NAA (lane 8), or 2 ng/ml IL-1β+10 mM NAA (lane 9). Cells were lysed and COX-2 protein was immunoprecipitated overnight (1:500 goat anti-human COX-2) from 400 μg total lysate protein. Immunoprecipitate was loaded on 4-20% tris-glycine gel and transferred overnight onto nitrocellulose membrane. Total COX-2 protein was quantitated using a goat anti-human COX-2 antibody (1:100) and 1:5,000 rabbit anti-goat IgG. The membrane was visualized by chemiluminescence.
Western Blot of COX-2. STTG cells were treated with either NAA or aspirin and immediately stimulated with 1 or 2 ng/ml IL-1β (Sigma-Aldrich, St. Louis, Mo.). After a 24-hour incubation at 37° C. (10% CO2), cells were lysed and total protein was quantitated by BCA (Pierce, Rockford, Ill.). Then, 0.5 mg lysate was immunoprecipitated using 1:500 goat anti-human COX-2 (Santa Cruz Biotechnology, Santa Cruz, Calif.) and Protein AG beads (Pierce, Rockford, Ill.) overnight at 4° C. Samples were loaded on a 4-20% Tris-Glycine gel (Invitrogen, Carlsbad, Calif.) and transferred to a nitrocellulose membrane overnight. The membrane was blocked with 5% Blotto (Santa Cruz Biotechnology, Santa Cruz, Calif.), and COX-2 was detected using 1:100 goat anti-human COX-2 (Santa Cruz Biotechnology, Santa Cruz, Calif.) and 1:5,000 rabbit anti-goat IgG HRP (Santa Cruz Biotechnology, Santa Cruz, Calif.). The membrane was visualized using ECL (Amersham, Piscataway, N.J.) and exposed to X-ray film.

[5] = system: activated NFκB in IL-1β-stimulated STTG cells; experiment: NFκB assay (ELISA-based) in IL-1β-stimulated STTG cells; assay type: cell-based, human; conditions: 1 ng/ml IL-1β, 24 h, FIG. 4
Description: FIG. 4. Effect of NAA on NFκB levels in STTG cells stimulated with IL-1. Cells were dosed with NAA and immediately stimulated with 1 ng/ml IL-1 for 24 hours at 37° C., 10% CO2. Cells were lysed, and 10 μg of total protein was assayed for activated NFκB levels using an ELISA-based method. Data represent mean ±SD of three separate experiments. Percentages are percent of inhibition of production of activated NFκB. Asterisks indicate a significant difference between untreated, IL-1β-stimulated STTG cells and NAA-treated, IL-1β-stimulated STTG cells: *p<0.005.
NFκB Assay. STTG cells were treated with NAA and stimulated immediately with 1 ng/ml IL-1β. After a 24-hour incubation, cells were lysed and total protein was quantitated using the BCA™ Protein Assay Kit (Pierce, Rockford, Ill.). Then, 10 μg of protein lysate was assayed for NFκB using the TransAM™ NFκB Family Transcription Factor Assay Kit (Catalog No. 43296, Active Motif, Carlsbad, Calif.).
Effect of NAA on NFκB activation. Activated NFκB was quantitated using a 96-well plate coated with an oligonucleotide that contains an NFκB consensus-binding site. This site specifically binds activated NFκB contained in cell extracts.

[6] = 5 mM, ionomycin-stimulated STTG cells
[7] = 10 mM, ionomycin-stimulated STTG cells
[8] = ionomycin-stimulated STTG cells, result in words

| SMILES | decrease in PGE2 release [1, 6] [%] | decrease in PGE2 release [1, 7] [%] | effect on total PGE2 release [1, 8] | effect on total amount of COX-2 protein [4] | effect on resting COX-2 protein [4] | also measured |
| --- | --- | --- | --- | --- | --- | --- |
| CCOC(=O)CC[C@H](N)C(=O)OCC [GDE, L-glutamic acid diethyl ester, reference compound] | 40 | 60 | did decrease |  |  |  |
| CC(=O)N[C@@H](CC(=O)O)C(=O)O [NAA, N-acetyl-L-aspartic acid] | 60 | 90 |  | decreased | no effect | decrease in PGE2 production ([1]; 5 mM, 1 h pre-incubation, 1 μM ionomycin 24 h, STTG cells, FIG. 1): 56%; decrease in PGE2 production ([1]; 10 mM, 1 h pre-incubation, 1 μM ionomycin 24 h, STTG cells, FIG. 1): 76%; inhibition at 20000 µM ([1]; Homo sapiens, 20 mM, 1 h pre-incubation, 1 μM ionomycin 24 h, STTG cells, FIG. 1, read-out: decrease in PGE2 production (inhibition)): > 95%; effect on COX-2 activity [2]: no effect; effect on total COX-2 mRNA [3]: did not decrease; decrease in NFκB production (activated NFκB) ([5]; 10 mM): 17.5%; decrease in NFκB production (activated NFκB) ([5]; 20 mM): 40% |
| N[C@@H](CCP(=O)(O)O)C(=O)O [L-AP-4, L-2-amino-4-phosphonobutyric acid, reference compound] |  |  | did decrease |  |  |  |
| CC(=O)Oc1ccccc1C(=O)O [aspirin, reference compound] |  |  |  | decreased | decreasing effect | inhibition of cyclooxygenases as evidenced by lack of PGE2 production ([1]; ionomycin-stimulated STTG cells, FIG. 1, result in words): complete inhibition |
